Reference: patent US6479504B1, “Antagonism of immunostimulatory CpG-oligonucleotides by 4-aminoquinolines and other weak bases” (The University of Iowa Research Foundation, priority 1999, dated 2002)
Read-outs that look alike come from different tables or passages of the source. One block for each molecule: values may come before it.

Tests used:
[1] = system: CpG-ODN effect on thymidine uptake by WEHI 231 B-cells; assay: Inhibition of CpG-ODN effect on thymidine uptake by WEHI 231 B-cells treated with anti-surface IgM; format: cell-based, murine
Excerpt: The ability of analogs to inhibit an immunostimulatory effect of CpG-ODN was examined. This assay measures the reversal of the protection by CpG-ODN against surface IgM induced killing of WEHI 231 cells.

CpG ODN 1760 = assay: DNA thermal melting at 260 nm; format: binding; settings: 0.3 moles of compound per base, MES with 150 mM KCl, pH 4.4
Procedure: Thermal melting studies were conducted at 260 nm with a Cary spectrophotometer interfaced to a microcomputer. A thermistor fixed into a reference cuvette was used to monitor the temperature. The DNA oligomer was added to 1 mL of buffer (MES with 150 mM KCl, pH 4.4) in 1 cm path length reduced-volume quartz cells. Studies were generally conducted a at concentration of 5×10-^5M bases. […].
Structural nucleic acids with duplex or single-stranded folded conformations generally give sigmoid thermal melting curves characteristic of thermal unfolding of the structures. This unfolding results in a change in the UV spectrum. […]

WEHI 231 cells [2] = assay: Uptake of Texas Red-labeled CpG-ODN 1760 by flow cytometry; format: cell-based, murine; settings: 5 ug/ml Texas Red CpG-ODN 1760
Procedure: FIG. 6. […] The cells were then washed three times, and fixed. The cellular uptake of fluorescent CpG-ODN was estimated by flow cytometry. […] .
After incubation with the additions indicated, the cells were centrifuged and resuspended three times into Hanks buffered salt solution at 37° to remove surface bound ODN, and then resuspended and fixed in 2% paraformaldehyde for analysis in the University of-Iowa Flow Cytometry Facility. 10,000 events were recorded using a Coulter EPICS 753 at 488/600 nm, gating out dead cells. The mean cellular fluorescence was recorded.
The effect of chloroquine and non-fluorescent analogs on the uptake of Texas Red-labeled CpG-ODN 1760 was investigated. […] . Flow cytometry measures cell-associated fluorescence because signals derived from dead cells (which take up ODN avidly, (Tonkinson and Stein, 1994)) are easily gated out of the analysis.

WEHI 231 cells [3] = assay: Confocal microscopy of subcellular distribution of internalized CpG-ODN
WEHI 231 cells [4] = settings: 1 μM
[5] = experimental, ring nitrogen of the quinoline; taken from Strekowski et al., J Med. Chem. 1996; cited from earlier work
quadruplex DNA = assay: Quadruplex DNA stabilization; format: binding
Excerpt: Since nucleic acids are involved and several compounds of this study have been shown previously to strongly stabilize a triple-helix DNA structure, it was hypothesized initially that stabilization of the triple helix complex is part of the mechanism. […] In addition, compound 1 binds weakly to RNA (Wilson et al., 1993).

triple-helix DNA = settings: cited from earlier work
duplex DNA = settings: cited from earlier work
RNA = settings: cited from earlier work
WEHI 231 cells [6] = assay: Monensin effect on cellular concentration of quinacrine; format: cell-based, murine; settings: Mus musculus, WEHI231, 0.5 h; 1 uM quinacrine, 30 min; read-out: Monensin concentration for half maximal inhibition of quinacrine uptake and loss of quinacrine from preloaded cells
Procedure: FIG. 5. Monensin: Cells were incubated with 1 uM quinacrine 17 or compound 227 for 30 min. Monensin at the indicated concentration was added either at the same time as the analog or at the end of the 30 min incubation, and the cellular concentration of the analog was determined by fluorescence.
Both effects were half maximal at a monensin concentration of about 1 μM (FIG. 5). Similar results were obtained with other analogs.

WEHI 231 cells [7] = settings: mouse
Procedure: Cellular uptake of analogs was estimated by fluorescence. […] The cells were pelleted by centrifugation, and the fluorescence of the supernatant was measured after dilution with the appropriate buffer. The cell pellet was extracted with 1 ml Catrimox-14 (Iowa Biotechnology Corp., Coralville, La.), and the insoluble nucleic acids were removed by centrifugation (16,000×g, 10 min). The resulting extract was diluted with the appropriate buffer, and its fluorescence was measured. […] The fluorescence intensity and spectra were determined with a Farrand Manual Spectrofluorometer at three pH's (3.4, 7.4, 10.0). Subsequent measurements of fluorescence were performed at pH giving the highest yield (Table I).
Standard curves of the fluorescence intensity of each analog in cell culture medium and in the cell extract buffer were prepared, measurements being taken at the pH listed in the table. To examine the uptake of the analogs by cells, WEHI 231 cells were incubated with a range of concentrations of the analogs, and measured the concentration of the analog remaining in the supernatant and the amount of analog in the extract of a cell pellet using the standard curves.
The sources were a=Sigma Chemical Co., b=National Cancer Institute, c=Synthesized by LS, d=Synthesized by FMI. […] ND, not determined.

[8] = Mus musculus, WEHI231, concentration for half-maximal inhibition of CpG-ODN effect on thymidine uptake by WEHI 231 B-cells in presence of anti-sIgM, estimated experimental error ± 15%, read-out: EC50
[9] = concentration for half-maximal inhibition of CpG-ODN effect on thymidine uptake by WEHI 231 B-cells in presence of anti-sIgM, estimated experimental error ± 15%, read-out: EC50
[10] = Mus musculus, WEHI231, concentration required for 50% blockage of the ability of CpG-ODN to rescue WEHI 231 cells from anti-surface IgM-induced cell death, read-out: 50% Efficacy
[11] = concentration required for 50% blockage of the ability of CpG-ODN to rescue WEHI 231 cells from anti-surface IgM-induced cell death, read-out: 50% Efficacy

SMILES: CCN(CC)CCCC(C)Nc1ccnc2cc(Cl)ccc12 (centres unmarked) [Chloroquine, chloroquine]
- Change in the thermal melting curve of the free CpG-ODN (CpG ODN 1760): did not cause any significant change
- Influence on CpG-ODN uptake (WEHI 231 cells [2]): no significant influence
- Influence on subcellular distribution of internalized CpG-ODN (WEHI 231 cells [3]): did not influence
- Increase in the pH of CpG-ODN-containing compartment (WEHI 231 cells [4]): less than 0.01 pH units
- Suppression of CpG-ODN responses ([1]; 1 μM): completely suppresses

SMILES: CN(C)CCNc1cc(-c2ccc(C(F)(F)F)cc2)nc2ccccc12 [Compound 6]
- EC50 [1, 9]: 155 nM

SMILES: CC(CCCC(C)(C)O)Nc1cc(-c2ccc3ccccc3c2)nc2ccccc12 (centres unmarked) [Compound 21]
- EC50 [1, 9]: 1150 nM

SMILES: C=C[C@H]1C[N@@]2CC[C@H]1C[C@H]2[C@H](O)c1ccnc2ccc(OC)cc12 [Quinine, reference compound]
- EC50 [1, 10]: 23000 nM

SMILES: Cc1ccc(-c2cc(NCCN(C)C)c3ccccc3n2)cc1 [Compound 4]
- EC50 [1, 9]: 12.3 nM

SMILES: COc1ccc2nc3cc(Cl)ccc3c(NC3CCCCC3Nc3c4ccc(Cl)cc4nc4ccc(OC)cc34)c2c1 (racemic) [Ism 16]
- EC50 [1, 11]: 14.5 nM

SMILES: CN(C)CCNc1cc(-c2cccc3ccccc23)nc2ccccc12 [Compound 3]
- Stabilization of quadruplex DNA (quadruplex DNA): do not stabilize
- Triplex DNA stabilization / binding (triple-helix DNA): does not promote triplex DNA formation and does not bind to the triple DNA structure
- EC50 [1, 9]: 39.8 nM
- Binding to duplex DNA (duplex DNA): does not bind at all

SMILES: COc1ccc2nc3cc(Cl)ccc3c(NC3CCCCC3Nc3ccnc4cc(Cl)ccc34)c2c1 (racemic) [Ism 9]
- EC50 [1, 11]: 105 nM

SMILES: CN(C)CCNc1cc(/C=C/c2ccccc2)nc2ccccc12 [Compound 5]
- EC50 [1, 9]: 6.5 nM

SMILES: CN(C)CCCCCCNc1cc(-c2ccc3ccccc3c2)nc2ccccc12 [OZ-123]
- EC50 [1, 11]: 5.9 nM

SMILES: CN(C)CCNc1cc(-c2ccc3ccc4ccccc4c3c2)nc2ccccc12 [Compound 2]
- EC50 [1, 9]: 11 nM

SMILES: O=C(CCCO)NCCCN1CCN(CCCNc2cc(-c3ccc4ccccc4c3)nc3ccccc23)CC1 [Compound 25]
- EC50 [1, 9]: 25.1 nM

SMILES: OCCOCCNc1cc(-c2ccc3ccccc3c2)nc2ccccc12 [Compound 23]
- EC50 [1, 9]: 330 nM

SMILES: CC(C)(C)OC(=O)NCCNc1cc(-c2ccc3ccccc3c2)nc2ccccc12 [Compound 20]
- EC50 [1, 9]: 570 nM

SMILES: CN(C)CCNc1cc(-c2ccc3ccccc3c2)nc2ccccc12 [LS-8]
- EC50 [1, 11]: 9.5 nM

SMILES: CCCCN(CCCC)CCCNc1cc(-c2ccc3ccccc3c2)nc2ccccc12 [MHQ-6]
- EC50 [1, 11]: 16.3 nM

SMILES: CN(C)CCNc1cc(-c2ccc3ccccc3c2)nc2ccccc12 [Compound 1]
- Stabilization of quadruplex DNA (quadruplex DNA): do not stabilize
- Triplex DNA stabilization / binding (triple-helix DNA): one of the best triplex DNA stabilizing agents known to date
- EC50 [1, 9]: 9.1 nM
- pKa [5]: 7.1
- Binding to RNA (RNA): binds weakly
- Binding to duplex DNA (duplex DNA): binds weakly

SMILES: CCN(CCO)CCCC(C)Nc1ccnc2cc(Cl)ccc12 (centres unmarked) [Hydroxychloroquine, reference compound]
- EC50 [1, 10]: 407 nM

SMILES: CC[C@@]1([C@@H]2O[C@@H]([C@H]3O[C@@](O)(CO)[C@H](C)C[C@@H]3C)C[C@@H]2C)CC[C@H]([C@]2(C)CC[C@]3(C[C@H](O)[C@@H](C)[C@@H]([C@@H](C)[C@@H](OC)[C@H](C)C(=O)O)O3)O2)O1 [Monensin]
- EC50 (WEHI 231 cells [6]): ~1000 nM

SMILES: CCN(CC)CCCC(Nc1c2ccc(Cl)cc2nc2ccc(OC)cc12)c1ccncc1 (centres unmarked) [10591-T/2, reference compound]
- EC50 [1, 11]: 30.2 nM

SMILES: CN(C)CCNC(=O)c1cc(-c2ccc3ccccc3c2)nc2ccccc12 [Compound 10]
- EC50 [1, 9]: > 10000 nM
- pKa [5]: 2.9

SMILES: CCN(CC)CCCC(C)Nc1c2ccc(Cl)cc2nc2ccc(OC)cc12 (centres unmarked) [Quinacrine]
- Change in the thermal melting curve of the free CpG-ODN (CpG ODN 1760): did not cause any significant change
- EC50 [1, 10]: 10.2 nM
- Cellular uptake ratio (WEHI 231 cells [7]): 601

Second part, led by results:

- EC50 [1, 8]: 1.2 nM
SMILES: Oc1c(CN2CCCC2)cc(Nc2cc(-c3ccc4ccccc4c3)nc3ccccc23)cc1CN1CCCC1 [Compound 31]

- EC50 [1, 9]: 5.9 nM
SMILES: CN(C)CCCCCCNc1cc(-c2ccc3ccccc3c2)nc2ccccc12 [Compound 16]

- EC50 [1, 9]: 4400 nM
SMILES: CN(C)CCCNc1ccnc2ccccc12 [Compound 11]

- EC50 [1, 9]: > 10000 nM
SMILES: CCCCc1ccc(Nc2cc(-c3ccc4ccccc4c3)nc3ccccc23)cc1 [Compound 26]

- EC50 [1, 8]: 320 nM
SMILES: Oc1ccc(Nc2cc(-c3ccc4ccccc4c3)nc3ccccc23)cc1 [Compound 28]

- EC50 [1, 9]: 510 nM
SMILES: OCCc1ccc(Nc2cc(-c3ccc4ccccc4c3)nc3ccccc23)cc1 [Compound 27]

- EC50 [1, 9]: 2400 nM
SMILES: CN(C)CCSc1cc(-c2ccc3ccccc3c2)nc2ccccc12 [Compound 9]
- pKa [5]: 4.4

- EC50 [1, 9]: 316 nM
SMILES: CN(C)CCCCNc1ccnc2ccccc12 [Compound 14]

- EC50 [1, 9]: 11 nM
SMILES: CN(C)CCCNc1cc(-c2ccc3ccccc3c2)nc2ccccc12 [Compound 13]

- EC50 [1, 8]: 10 nM
SMILES: Oc1c(CN2CCOCC2)cc(Nc2cc(-c3ccc4ccccc4c3)nc3ccccc23)cc1CN1CCOCC1 [Compound 29]

- EC50 [1, 9]: 4 nM
SMILES: CN(C)CCCCNc1cc(-c2ccc3ccccc3c2)nc2ccccc12 [Compound 15]

- EC50 [1, 9]: 416 nM
SMILES: CN(C)CCN(C)c1cc(-c2ccc3ccccc3c2)nc2ccccc12 [Compound 7]
- pKa [5]: 6.2

- EC50 [1, 9]: 1000 nM
SMILES: CC(Nc1cc(-c2ccc3ccccc3c2)nc2ccccc12)C(O)c1ccccc1 (centres unmarked) [Compound 22]

- EC50 [1, 9]: 170 nM
SMILES: OCCCCCCNc1cc(-c2ccc3ccccc3c2)nc2ccccc12 [Compound 24]

- EC50 [1, 8]: 1.5 nM
SMILES: Oc1c(CN2CCCCC2)cc(Nc2cc(-c3ccc4ccccc4c3)nc3ccccc23)cc1CN1CCCCC1 [Compound 30]

- EC50 [1, 8]: 0.24 nM
SMILES: CN1CCN(Cc2cc(Nc3cc(-c4ccc5ccccc5c4)nc4ccccc34)cc(CN3CCN(C)CC3)c2O)CC1 [Compound 32]

- EC50 [1, 9]: 11.5 nM
SMILES: Cc1ccc(-c2cc(NCCCN(C)C)c3ccccc3n2)cc1 [Compound 12]
